Our source for the IC50 values is patent publication US20100029657A1, “Bridged, Bicyclic Heterocyclic or Spiro Bicyclic Heterocyclic Derivatives of Pyrazolo[1, 5-A]Pyrimidines, Methods for Preparation and Uses Thereof” (Wyeth, priority 2008, published 2010).

Molecules are shown by their SMILES.

T1 sequence (P15056 whole entry): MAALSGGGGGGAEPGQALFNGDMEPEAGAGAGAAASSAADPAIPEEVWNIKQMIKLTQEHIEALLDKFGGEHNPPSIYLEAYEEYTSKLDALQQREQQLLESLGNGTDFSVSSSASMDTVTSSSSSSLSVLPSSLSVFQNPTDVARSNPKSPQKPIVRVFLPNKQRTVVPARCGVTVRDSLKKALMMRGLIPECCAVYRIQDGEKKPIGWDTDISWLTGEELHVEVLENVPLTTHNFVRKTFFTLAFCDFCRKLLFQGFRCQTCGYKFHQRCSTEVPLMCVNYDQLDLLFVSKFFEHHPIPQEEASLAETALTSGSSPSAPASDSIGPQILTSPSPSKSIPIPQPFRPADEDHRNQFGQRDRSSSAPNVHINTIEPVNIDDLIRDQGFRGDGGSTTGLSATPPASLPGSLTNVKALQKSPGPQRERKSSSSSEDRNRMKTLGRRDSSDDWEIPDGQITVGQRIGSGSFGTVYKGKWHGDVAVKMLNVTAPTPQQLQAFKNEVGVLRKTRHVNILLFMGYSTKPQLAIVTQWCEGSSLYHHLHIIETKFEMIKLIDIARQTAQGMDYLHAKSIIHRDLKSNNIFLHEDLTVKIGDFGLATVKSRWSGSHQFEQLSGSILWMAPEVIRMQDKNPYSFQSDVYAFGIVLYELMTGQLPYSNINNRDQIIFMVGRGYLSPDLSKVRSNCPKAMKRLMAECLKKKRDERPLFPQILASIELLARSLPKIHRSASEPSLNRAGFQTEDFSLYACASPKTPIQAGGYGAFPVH

This experiment addresses T1, Flag/GST-tagged recombinant human B-Raf (Homo sapiens, UniProt P15056).
T1 construct: Flag; GST; made in house; host or cells: Sf9 insect cells (B-Raf); E. coli (MEK1-GST)
The experiment in a line: B-Raf kinase assay (phosphorylation of GST-MEK1, phospho-MEK1 antibody/Europium detection). Format: biochemical. To be noted: B-Raf IC50 Data for compounds of Formula A; read-out: Mean IC50. The procedure, abridged:
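Percent inhibition was calculated at each compound concentration from Europium time-resolved fluorescence (anti-phospho-MEK1, then Eu-conjugated anti-rabbit) after GST capture. The upstream kinase step used GST-MEK1 with 0.2 nM B-Raf for 45 min at room temperature in MOPS buffer, pH 7.2. It was started with a cocktail of 200 μM ATP and 40 mM MgCl2.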
One may read the IC50 as the point on the concentration scale where inhibition reaches its midpoint. Regarding `CN1C[C@@H]2C[C@H]1CN2c1ccc(-c2ccnc3c(-c4cccc5[nH]ncc45)c(-c4ccncc4)nn23)c(F)c1F` [Example 165, 7-{2,3-difluoro-4-[(1S,4S)-5-methyl-2,5-diazabicyclo[2.2.1]hept-2-yl]phenyl}-3-(1H-indazol-4-yl)-2-pyridin-4-ylpyrazolo[1,5-a]pyrimidine], the half-maximal inhibitory concentration (IC50) was 0.6 nM.

For the molecule `CN1C[C@@H]2C[C@H]1CN2c1cc(F)c(-c2ccnc3c(-c4cccc5[nH]ncc45)c(-c4ccncc4)nn23)cc1F` [Example 166, 7-{2,5-difluoro-4-[(1S,4S)-5-methyl-2,5-diazabicyclo[2.2.1]hept-2-yl]phenyl}-3-(1H-indazol-4-yl)-2-pyridin-4-ylpyrazolo[1,5-a]pyrimidine], the 50% inhibitory concentration (IC50) was 0.4 nM.

Regarding `CCN1C[C@@H]2C[C@H]1CN2c1cc(F)c(-c2ccnc3c(-c4cccc5[nH]ncc45)c(-c4ccncc4)nn23)c(F)c1` [Example 167, 7-{4-[(1S,4S)-5-ethyl-2,5-diazabicyclo[2.2.1]hept-2-yl]-2,6-difluorophenyl}-3-(1H-indazol-4-yl)-2-pyridin-4-ylpyrazolo[1,5-a]pyrimidine], the IC50 is under 0.3 nM.

As for `CC(C)CN1C[C@@H]2C[C@H]1CN2c1cc(F)c(-c2ccnc3c(-c4cccc5[nH]ncc45)c(-c4ccncc4)nn23)c(F)c1` [Example 168, 7-{2,6-difluoro-4-[(1S,4S)-5-isobutyl-2,5-diazabicyclo[2.2.1]hept-2-yl]phenyl}-3-(1H-indazol-4-yl)-2-pyridin-4-ylpyrazolo[1,5-a]pyrimidine], the concentration for half-maximal inhibition (IC50) is under 0.3 nM.

Consider `CC(C)N1C[C@@H]2C[C@H]1CN2c1cc(F)c(-c2ccnc3c(-c4cccc5[nH]ncc45)c(-c4ccncc4)nn23)c(F)c1` [Example 169, 7-{2,6-difluoro-4-[(1S,4S)-5-isopropyl-2,5-diazabicyclo[2.2.1]hept-2-yl]phenyl}-3-(1H-indazol-4-yl)-2-pyridin-4-ylpyrazolo[1,5-a]pyrimidine], for which the 50% inhibitory concentration (IC50) was under 0.3 nM.

For the molecule `Fc1cc(N2C[C@@H]3C[C@H]2CN3C2CCC2)cc(F)c1-c1ccnc2c(-c3cccc4[nH]ncc34)c(-c3ccncc3)nn12` [Example 170, 7-{4-[(1S,4S)-5-cyclobutyl-2,5-diazabicyclo[2.2.1]hept-2-yl]-2,6-difluorophenyl}-3-(1H-indazol-4-yl)-2-pyridin-4-ylpyrazolo[1,5-a]pyrimidine], the half-maximal inhibitory concentration (IC50) was under 0.3 nM.

For `Fc1cc(N2C[C@@H]3CC[C@H]2CN3)ccc1-c1ccnc2c(-c3cccc4[nH]ncc34)c(-c3ccncc3)nn12` [Example 172, 7-{4-[(1S,4S)-2,5-diazabicyclo[2.2.2]oct-2-yl]-2-fluorophenyl}-3-(1H-indazol-4-yl)-2-pyridin-4-ylpyrazolo[1,5-a]pyrimidine], the IC50 worked out at 0.3 nM.

For `CN1C[C@@H]2CC[C@H]1CN2c1ccc(-c2ccnc3c(-c4cccc5[nH]ncc45)c(-c4ccncc4)nn23)c(F)c1` [Example 173, 7-{2-fluoro-4-[(1S,4S)-5-methyl-2,5-diazabicyclo[2.2.2]oct-2-yl]phenyl}-3-(1H-indazol-4-yl)-2-pyridin-4-ylpyrazolo[1,5-a]pyrimidine], the half-inhibitory concentration (IC50) was determined as 0.4 nM.

As to `CN1C[C@@H]2C[C@H]1CN2c1c(F)c(F)c(-c2ccnc3c(-c4cccc5[nH]ncc45)c(-c4ccncc4)nn23)c(F)c1F` [Example 174, 3-(1H-indazol-4-yl)-2-pyridin-4-yl-7-{2,3,5,6-tetrafluoro-4-[(1S,4S)-5-methyl-2,5-diazabicyclo[2.2.1]hept-2-yl]phenyl}pyrazolo[1,5-a]pyrimidine], the IC50 stood at 0.4 nM.

Consider `CC(C)(C)OC(=O)N1C[C@@H]2C[C@H]1CN2c1ccc(-c2ccnc3c(-c4ccc(F)c5[nH]ncc45)c(-c4ccncc4)nn23)c(Cl)c1` [Example 175, tert-butyl (1S,4S)-5-{3-chloro-4-[3-(7-fluoro-1H-indazol-4-yl)-2-pyridin-4-ylpyrazolo[1,5-a]pyrimidin-7-yl]phenyl}-2,5-diazabicyclo[2.2.1]heptane-2-carboxylate], for which the half-inhibitory concentration (IC50) came out at 1 nM.

On to `Fc1ccc(-c2c(-c3ccncc3)nn3c2nccc3[C@H]2CC[C@@H](N3C[C@@H]4C[C@H]3CN4)CC2)c2cn[nH]c12` [Example 176, 7-{cis-4-[(1S,4S)-2,5-diazabicyclo[2.2.1]hept-2-yl]cyclohexyl}-3-(7-fluoro-1H-indazol-4-yl)-2-pyridin-4-ylpyrazolo[1,5-a]pyrimidine], for which the IC50 came to 1 nM.

For `Fc1ccc(-c2c(-c3ccncc3)nn3c2nccc3[C@H]2CC[C@@H](N3C[C@@H]4C[C@H]3CO4)CC2)c2cn[nH]c12` [Example 177, 3-(7-fluoro-1H-indazol-4-yl)-7-{cis-4-[(1S,4S)-2-oxa-5-azabicyclo[2.2.1]hept-5-yl]cyclohexyl}-2-pyridin-4-ylpyrazolo[1,5-a]pyrimidine], the half-inhibitory concentration (IC50) was 4 nM.

With `Fc1ccc(-c2c(-c3ccncc3)nn3c2nccc3[C@H]2CC[C@H](N3C[C@@H]4C[C@H]3CO4)CC2)c2cn[nH]c12` [Example 178, 3-(7-fluoro-1H-indazol-4-yl)-7-{trans-4-[(1S,4S)-2-oxa-5-azabicyclo[2.2.1]hept-5-yl]cyclohexyl}-2-pyridin-4-ylpyrazolo[1,5-a]pyrimidine], the IC50 turned out to be 6.7 nM.

As for `Fc1ccc(-c2c(-c3ccncc3)nn3c2nccc3[C@H]2CC[C@H](N3C[C@@H]4C[C@H]3CN4)CC2)c2cn[nH]c12` [Example 183, 7-{trans-4-[(1S,4S)-2,5-diazabicyclo[2.2.1]hept-2-yl]cyclohexyl}-3-(7-fluoro-1H-indazol-4-yl)-2-pyridin-4-ylpyrazolo[1,5-a]pyrimidine], the concentration for half-maximal inhibition (IC50) was under 0.3 nM.

Regarding `Fc1ccc(-c2c(-c3ccncc3)nn3c(-c4ccc(N5C[C@@H]6C[C@H]5CN6)cc4Cl)ccnc23)c2cn[nH]c12` [Example 184, 7-{2-chloro-4-[(1S,4S)-2,5-diazabicyclo[2.2.1]hept-2-yl]phenyl}-3-(7-fluoro-1H-indazol-4-yl)-2-pyridin-4-ylpyrazolo[1,5-a]pyrimidine], the half-maximal inhibitory concentration (IC50) was under 0.3 nM.

In the case of `Fc1cc(-c2ccnc3c(-c4cccc5[nH]ncc45)c(-c4ccncc4)nn23)ccc1N1C[C@@H]2C[C@H]1CN2` [Example 185, 7-{4-[(1S,4S)-2,5-diazabicyclo[2.2.1]hept-2-yl]-3-fluorophenyl}-3-(1H-indazol-4-yl)-2-pyridin-4-ylpyrazolo[1,5-a]pyrimidine], the concentration for half-maximal inhibition (IC50) is 1.7 nM.

On to `FC(F)(F)c1cc(N2C[C@@H]3C[C@H]2CN3)ccc1-c1ccnc2c(-c3cccc4[nH]ncc34)c(-c3ccncc3)nn12` [Example 186, 7-{4-[(1S,4S)-2,5-diazabicyclo[2.2.1]hept-2-yl]-2-(trifluoromethyl)phenyl}-3-(1H-indazol-4-yl)-2-pyridin-4-ylpyrazolo[1,5-a]pyrimidine], for which the 50% inhibitory concentration (IC50) worked out at 1.1 nM.

Turning to `Brc1cc(N2C[C@@H]3C[C@H]2CN3)ccc1-c1ccnc2c(-c3cccc4[nH]ncc34)c(-c3ccncc3)nn12` [Example 187, 7-{2-bromo-4-[(1S,4S)-2,5-diazabicyclo[2.2.1]hept-2-yl]phenyl}-3-(1H-indazol-4-yl)-2-pyridin-4-ylpyrazolo[1,5-a]pyrimidine], the half-maximal inhibitory concentration (IC50) is under 0.3 nM.

`CN1C[C@@H]2C[C@H]1CN2c1ccc(-c2ccnc3c(-c4cccc5[nH]ncc45)c(-c4ccncc4)nn23)cc1F` [Example 188, 7-{3-fluoro-4-[(1S,4S)-5-methyl-2,5-diazabicyclo[2.2.1]hept-2-yl]phenyl}-3-(1H-indazol-4-yl)-2-pyridin-4-ylpyrazolo[1,5-a]pyrimidine]: the concentration for half-maximal inhibition (IC50) is 1.9 nM.
